Data reported in US9840509B2, “Heterocyclic compounds” (CADILA HEALTHCARE LIMITED, priority 2014, dated 2017).

Experiments:
[1] = target: T1, CYP 2C8 (Homo sapiens, UniProt P10632); experiment: CYP inhibition in human liver microsomes, 2C8; assay type: in vitro ADME; settings: pH 7.4, @ 10 μM concn
T1 construct: from tissue; host or cells: human liver microsomes
T1 sequence (P10632 1-490): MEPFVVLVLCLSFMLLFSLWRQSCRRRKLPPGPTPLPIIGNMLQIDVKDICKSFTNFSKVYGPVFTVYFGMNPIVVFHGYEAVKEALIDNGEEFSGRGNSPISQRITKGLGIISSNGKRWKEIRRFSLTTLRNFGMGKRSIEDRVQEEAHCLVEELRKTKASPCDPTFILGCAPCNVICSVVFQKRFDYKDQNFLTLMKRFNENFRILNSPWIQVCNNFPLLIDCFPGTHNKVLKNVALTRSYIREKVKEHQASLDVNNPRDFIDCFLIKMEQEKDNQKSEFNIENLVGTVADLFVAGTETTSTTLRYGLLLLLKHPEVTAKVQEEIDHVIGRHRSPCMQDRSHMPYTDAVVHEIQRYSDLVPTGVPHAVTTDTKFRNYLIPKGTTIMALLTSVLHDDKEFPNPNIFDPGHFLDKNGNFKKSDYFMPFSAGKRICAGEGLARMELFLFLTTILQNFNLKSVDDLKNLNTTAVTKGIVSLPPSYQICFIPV
How it was run: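 Human liver microsomes in 100 mM phosphate pH 7.4 with CYP-specific probe substrate were incubated with test compound at […] and 10 μM, started with 1 mM NADPH at 37° C. Reactions were stopped with acetonitrile, and marker-reaction metabolites were quantified by LC-MS/MS. Final solvent was ≤0.2%.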

[2] = test system: TMD-8 cells; experiment: Diffused large B cell lymphoma xenografts using TMD-8 cell line; assay type: in vivo, Female SCID mice; settings: Dose: 10 mpk, po, SCID mice, Mean ± SD, n = 8
Description: (§1) All the animal experiments were carried out in female rats and mice, bred in-house. Animals were housed in groups of 6 animals per cage, for a week, in order to habituate them to vivarium conditions (25±4° C., 60-65% relative humidity, 12: 12 h light: dark cycle, with lights on at 7.30 am). All the animal experiments were carried out according to the internationally valid guidelines following approval by the ‘Zydus Research Center animal ethical committee’.
Diffused Large B Cell Lymphoma Xenografts Using TMD-8 Cell Line
Female SCID mice were inoculated sc with 10×10^6 TMD-8 cells in 0.1 mL of PBS to the right flank. Animals were observed twice weekly for occurrence of tumor. Once the tumors became palpable (around 100 mm^3) around 14 days after injection, treatment was initiated via oral route. Tumor volume was determined every alternate day using digital calipers and the tumor volume was calculated using the formula: [length/2]×[width^2]. Body weights of the animals were also recorded 3 times a week as a measure of treatment related side effect. Treatment was continued for two more weeks and inhibition of tumor volume compared to vehicle control was considered as efficacy endpoint.

[3] = test system: CIA Arthritis Model; experiment: Collagen induced arthritis (CIA) study in mice; assay type: in vivo; settings: Dose: 10 mpk, po, Mean ± SD, n = 8
Description: as §1
Protocol for Collagen Induced Arthritis (CIA) Study in Mice
CIA is a frequently used animal model of human RA (Courtenay, J. S., Dallman, M. J., Dayan, A. D., Martin, A. and Mosedale, B., Nature, 1980, 283, 666-668; Bevaart, L., Vervoordeldonk, M. J., Tak, P. P., Methods Mol. Biol., 2010, 602, 181-192). Following 7 days acclimation, mice were randomly assigned to groups according body weight. Mice were immunized subcutaneously in the tail using bovine type II collagen mix in complete Freund's adjuvant (CFA). Twenty-one days after the first immunization, mice were given booster dose of collagen in incomplete Freund's adjuvant (IFA). Mice were monitored every other day after the booster dose for the development of arthritis. Mice were recruited for the study once clinical signs were visible. Eight animals were assigned each of three groups [vehicle, positive control and test compounds] and treatment was continued for four weeks and percentage inhibition in clinical score is recorded as per graded score. Body weights of the animals were also recorded 3 times a week as a measure of treatment related side effect, paw thickness measured twice a week and blood serum are collected at termination for cytokines profile.

Compound | inhibition at 10 μM [1] [%] | % Inhibition in tumor volume, Day-16, in TMD-8 Xenografts Model [2] [%] | % inhibition of clinical score, Day-28, in CIA Arthritis Model [3] [%]
C=CC(=O)N1CC2CC(N3C(=O)N(c4ccc(Oc5ccccc5)cc4)C4C(N)=NC=NC43)CC2C1 (stereo not drawn) [Compound 25, 9-(2-acryloyloctahydrocyclopenta[c]pyrrol-5-yl)-6-amino-7-(4-phenoxyphenyl)-5,7-dihydro-4H-purin-8(9H)-one] | < 50 | 50.2 ± 10.1 | 90.1 ± 6.3
C=CC(=O)N1CC2CC(n3nc(-c4ccc(NC(=O)c5ccccn5)cc4)c4c(N)ncnc43)CC2C1 (stereo not drawn) [Compound 32, N-(4-(1-(2-acryloyloctahydrocyclopenta[c]pyrrol-5-yl)-4-amino-1H-pyrazolo[3,4-d]pyrimidin-3-yl)phenyl)picolinamide] | < 50 | 56.1 ± 8.2 | 100 ± 3.9
C=CC(=O)N1CC2CC(n3nc(-c4ccc(C(=O)Nc5cc(C)ccn5)cn4)c4c(N)ncnc43)CC2C1 (stereo not drawn) [Compound 42, 6-(1-(2-acryloyloctahydrocyclopenta[c]pyrrol-5-yl)-4-amino-1H-pyrazolo[3,4-d]pyrimidin-3-yl)-N-(4-methylpyridin-2-yl)nicotinamide] | < 50 | 62.2 ± 8.8 | 100 ± 4.2
C=CC(=O)N1CC2CC(n3nc(-c4ccc(-c5nnc(-c6cnccn6)s5)cc4)c4c(N)ncnc43)CC2C1 (stereo not drawn) [Compound 46, 1-(5-(4-amino-3-(4-(5-(pyrazin-2-yl)-1,3,4-thiadiazol-2-yl)phenyl)-1H-pyrazolo[3,4-d]pyrimidin-1-yl)hexahydrocyclopenta[c]pyrrol-2(1H)-yl)prop-2-en-1-one] | < 50 | 54.3 ± 9.1 | 88 ± 7.1
C=CC(=O)N1CC2CC(n3nc(-c4ccc(C(=O)N(C)c5cc(C)ccn5)cc4)c4c(N)ncnc43)CC2C1 (stereo not drawn) [Compound 54, 4-(1-(2-acryloyloctahydrocyclopenta[c]pyrrol-5-yl)-4-amino-1H-pyrazolo[3,4-d]pyrimidin-3-yl)-N-methyl-N-(4-methylpyridin-2-yl)benzamide] | < 50 | 92.1 ± 13.1 | 98 ± 4.5
